Data on eleven compounds can be found in ChEMBL document CHEMBL1201862, “PubChem BioAssay data set” (2004).

What all share (assay): DTP human tumour cell line panel, 48 h
In experiment [1] the test system is CAKI-1.
For experiment [2], the system named is CCRF-CEM.
The test system of experiment [3] is DU-145.
The subject of experiment [4] is HOP-62.
The test system of experiment [5] is MOLT-4.
Experiment [6] concerns NCI-H23.
The test system of experiment [7] is NCI/ADR-RES.
The subject of experiment [8] is OVCAR-3.
The subject of experiment [9] is PC-3.
For experiment [10], the system named is RXF 393.
The test system of experiment [11] is SF-268.
The subject of experiment [12] is SF-539.
Experiment [13] concerns SK-MEL-28.
Experiment [14] deals with SNB-19.
In experiment [15] the test system is SNB-75.
Experiment [16] has as its system SR.
Experiment [17] concerns SW-620.
Experiment [18] has as its system UACC-62.
Experiment [19] has as its system UO-31.
For experiment [20], the system named is HCC 2998.

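Tested at 5 concentrations; 48 h exposure; 96-well plates; endpoints linearly interpolated, else capped at highest concentration. GI50 is the concentration that inhibits growth by half.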 Active and inactive are the calls of the source. Rule as the data show it: active = GI50 up to about 1.1 µM and inactive = higher. Where a SMILES comes first, the peptide text is derived from it. The star is where a group is joined. Cbz = O=C(OCc1ccccc1)*

Usually GI50 stands for the concentration that inhibits growth by half. For `CC1=CP(=O)(c2c(C(C)C)cc(C(C)C)cc2C(C)C)CCC1Cl` (stereo not given), the GI50 was 16.8 µM (inactive) in experiment [1]; 14.1 µM (inactive) in experiment [2]; 19.6 µM (inactive) in experiment [3]; 17 µM (inactive) in [4]; 6.7 µM (inactive) in [5]; 16.6 µM (inactive) in experiment [6]. Moreover, the GI50 was 15 µM (inactive) in [7]; 10.1 µM (inactive) in experiment [8]; 13.4 µM (inactive) in experiment [9]; 14.7 µM (inactive) in experiment [10]; 16.3 µM (inactive) in [11]; 17.1 µM (inactive) in [12]. In addition, the GI50 is 18.6 µM (inactive) in experiment [13]; 14.4 µM (inactive) in experiment [14]; 14 µM (inactive) in experiment [15]; 0.769 µM (active) in experiment [16]; 21.6 µM (inactive) in experiment [17]; 12 µM (inactive) in experiment [18]. Moreover, the GI50 in experiment [19] is 13.9 µM (inactive).

For `Cc1ccc(/C=C2\NC(=S)N(CN3CCCCC3)C2=O)cc1`, the GI50 in [2] was 12.4 µM (inactive); in experiment [3], 36.1 µM (inactive); in [4], > 100 µM (inactive); in [5] it was 93.3 µM (inactive); in [6] it was > 100 µM (inactive); in experiment [7], 57.7 µM (inactive). For the same compound, the GI50 in [8] was 65.3 µM (inactive); in experiment [9], 61.4 µM (inactive); in experiment [11] it was 64 µM (inactive); in experiment [13] it was 79.3 µM (inactive); in [14] it was 55.5 µM (inactive); in experiment [15], > 100 µM (inactive). Besides, the GI50 in [16] was 83.6 µM (inactive); in [17], 28.9 µM (inactive); in experiment [18] it was 33.3 µM (inactive); in experiment [19], 63.1 µM (inactive).

Regarding `N#Cc1cc(-c2nc3cc(F)ccc3s2)ccc1N`, the GI50 in [1] was > 38.7 µM (inactive); in experiment [2] it was > 100 µM (inactive); in experiment [3] it was 53.1 µM (inactive); in [20], < 0.01 µM (active); in [4], 15.3 µM (inactive); in [5] it was > 100 µM (inactive). The 50% growth inhibitory concentration (GI50) in [6] was < 0.01 µM (active); in [7] it was > 61.2 µM (inactive); in experiment [8] it was 19.8 µM (inactive); in experiment [9] it was 24.7 µM (inactive); in experiment [10] it was 2.11 µM (inactive); in experiment [11], 18.1 µM (inactive). Also, the GI50 in experiment [12] is 13.3 µM (inactive); in experiment [13], > 100 µM (inactive); in [14], 18.2 µM (inactive); in experiment [15], 1.59 µM (inactive); in experiment [17] it was > 100 µM (inactive); in experiment [18], 14.9 µM (inactive). The GI50 in experiment [19] is 42 µM (inactive).

As to `CCOC(=O)CCC(NC(=O)CNC(=O)CNC(=O)C(CCC(=O)OCC)NC(=O)C(CCC(=O)OCC)NC(=O)C(CCC(=O)OCC)NC(=O)OCc1ccccc1)C(=O)NC(CCC(=O)OCC)C(=O)NC(CCC(=O)OCC)C(=O)OCC` (stereo not given) (Cbz-E(OEt)E(OEt)E(OEt)GGE(OEt)E(OEt)E(OEt)-OEt; configuration not given here), the GI50 in experiment [1], in experiment [2], in experiment [3], in experiment [5], in experiment [6] and in experiment [7] was > 75 µM (inactive) each time. For the same compound, the GI50 in experiment [9], in experiment [10], in experiment [11], in [13], in [14] and in experiment [15] was > 75 µM (inactive) throughout. In addition, the GI50 in experiment [16], in experiment [17], in [18] and in experiment [19] was > 75 µM (inactive) each time.

On to `OCC(O)C(O)C(O)C(O)c1nc2cc(Cl)ccc2[nH]1` (stereo not given), for which the GI50 is > 100 µM (inactive) in [1]; > 100 µM (inactive) in experiment [2]; > 100 µM (inactive) in experiment [3]; > 100 µM (inactive) in experiment [20]; 90.4 µM (inactive) in [4]; > 100 µM (inactive) in experiment [5]. Besides, the GI50 in experiment [6], in experiment [7], in [8], in experiment [9], in experiment [10] and in experiment [11] was > 100 µM (inactive) in each case. Also, the GI50 in experiment [12], in experiment [13], in experiment [14], in experiment [15], in [17] and in experiment [18] was > 100 µM (inactive) each time. Also, the GI50 in [19] is > 100 µM (inactive).

In the case of `NC(=O)c1ccc(NS(=O)(=O)c2ccc(N)cc2)nc1`, the GI50 in [1], in [2], in [3], in [20], in [4] and in [5] was > 100 µM (inactive) in each case. The GI50 in experiment [6], in experiment [7], in experiment [8], in experiment [9], in experiment [11] and in [13] was > 100 µM (inactive) each time. The GI50 in [14], in [15], in experiment [17], in [18] and in experiment [19] was > 100 µM (inactive) each time.

For the compound `CSc1nc(Nc2ccccc2Cl)c2c(N)nn(C)c2n1`, the GI50 in [1] was > 100 µM (inactive); in experiment [2] it was > 100 µM (inactive); in experiment [3], > 100 µM (inactive); in [20] it was > 100 µM (inactive); in [4], 27 µM (inactive); in experiment [5], > 100 µM (inactive). For the same compound, the GI50 was > 100 µM (inactive) in experiment [6]; 69.5 µM (inactive) in experiment [7]; > 100 µM (inactive) in experiment [8]; > 100 µM (inactive) in [9]; 47.2 µM (inactive) in [10]; 77.8 µM (inactive) in experiment [11]. In addition, the GI50 is > 100 µM (inactive) in experiment [13]; > 100 µM (inactive) in experiment [14]; > 10 µM (inactive) in [15]; > 100 µM (inactive) in experiment [17]; > 100 µM (inactive) in experiment [18]; > 100 µM (inactive) in [19].

Consider `Cc1[nH]c(-c2ccccc2)c(-c2ccc(Cl)cc2)c1C(=O)ONC(=O)c1ccccc1`, for which the GI50 in [1] was 2.44 µM (inactive); in experiment [2], 1.75 µM (inactive); in [3], 1.58 µM (inactive); in [20] it was 3.32 µM (inactive); in experiment [4] it was 2.07 µM (inactive); in [5], 2.69 µM (inactive). Also, the GI50 in experiment [6] was 4.02 µM (inactive); in [7], 3.23 µM (inactive); in experiment [8] it was 3.2 µM (inactive); in experiment [9], 4.94 µM (inactive); in experiment [10], 2.12 µM (inactive); in experiment [11], 2.34 µM (inactive). For the same compound, the GI50 in experiment [12] was 2.22 µM (inactive); in experiment [13] it was 8.38 µM (inactive); in [14], 4.86 µM (inactive); in experiment [15] it was 3.56 µM (inactive); in experiment [17], 7.26 µM (inactive); in experiment [18], 10.1 µM (inactive). Further, the 50% growth inhibitory concentration (GI50) in experiment [19] was 0.113 µM (active).

With `CCOC(=O)[C@@H]1OC(c2ccccc2)O[C@H]1C(=O)OCC`, the GI50 in experiment [2], in experiment [3], in [4], in experiment [5], in experiment [6] and in experiment [7] was > 100 µM (inactive) throughout. In addition, the GI50 in experiment [8], in experiment [9], in experiment [11], in experiment [13], in experiment [14] and in experiment [15] was > 100 µM (inactive) each time. For the same compound, the GI50 in experiment [16], in experiment [17], in [18] and in experiment [19] was > 100 µM (inactive) in each case.

For `N#CCSc1c(-c2ccccc2)c(=O)n(-c2ccccc2)c(=S)n1-c1ccccc1`, the GI50 in experiment [1] is > 100 µM (inactive); in experiment [2], 96.8 µM (inactive); in experiment [3], > 10 µM (inactive); in [4], > 100 µM (inactive); in experiment [5] it was > 100 µM (inactive); in experiment [6], > 100 µM (inactive). Besides, the GI50 in experiment [7], in [8], in experiment [9], in [11], in experiment [13] and in experiment [14] was > 100 µM (inactive) each time. In addition, the GI50 in experiment [15] is 20.1 µM (inactive); in experiment [16], > 100 µM (inactive); in [17], > 100 µM (inactive); in [18], 32.9 µM (inactive); in [19], > 100 µM (inactive).

`CC(C)CNc1nc(N)nc(O)c1NC=O`: the GI50 in experiment [1], in experiment [2], in [3], in experiment [20], in [4] and in experiment [5] was > 100 µM (inactive) in each case. The GI50 in experiment [6], in experiment [7], in experiment [8], in [9], in experiment [10] and in [11] was > 100 µM (inactive) throughout. The GI50 in experiment [12], in experiment [13], in [14], in [15], in [17] and in experiment [18] was > 100 µM (inactive) throughout. Further, in experiment [19], the GI50 was > 100 µM (inactive).
